Here are results for 19 compounds from patent publication US6534491B2, “Preparation and use of ortho-sulfonamido bicyclic heteroaryl hydroxamic acids as matrix metalloproteinase and tace inhibitors” (priority 1996, dated 2003).

In assay [1] the target is MMP-9 (Homo sapiens, UniProt P14780). As to the kind of experiment: MMP-9 inhibition (thiopeptide or fluorescent peptide substrate). Format: biochemical.
Description: (§1) The enzyme activity is measured by the rate of the color increase. The thiopeptide substrate is made up fresh as a 20 mM stock in 100% DMSO and the DTNB is dissolved in 100% DMSO as a 100 mM stock and stored in the dark at room temperature. Both the substrate and DTNB are diluted together to 1 mM with substrate buffer (50 mM HEPES pH 7.5, 5 mM CaCl2) before use. The stock of enzyme is diluted with buffer (50 mM HEPES, pH 7.5, 5 mM CaCl2, 0.02% Brij) to the desired final concentration.
(§2) Alternatively, a fluorescent peptide substrate is used. In this test procedure, the peptide substrate contains a fluorescent group and a quenching group. Upon cleavage of the substrate by an MMP, the fluorescence that is generated is quantitated on the fluorescence plate reader. The assay is run in HCBC assay buffer (50 mM HEPES, pH 7.0, 5 mM Ca^+2, 0.02% Brij, 0.5% Cysteine), with human recombinant MMP-1, MMP-9, or MMP-13. The substrate is dissolved in methanol and stored frozen in 1 mM aliquots. For the assay, substrate and enzymes are diluted in HCBC buffer to the desired concentrations. Compounds are added to the 96 well plate containing enzyme and the reaction is started by the addition of substrate.
(§3) For either the thiopeptide or fluorescent peptide test procedures, the slope of the line is calculated and represents the reaction rate. The linearity of the reaction rate is confirmed (r^2>0.85). The mean (x±sem) of the control rate is calculated and compared for statistical significance (p<0.05) with drug-treated rates using Dunnett's multiple comparison test.
In assay [2] the target is TACE (Homo sapiens, UniProt P78536). In words: TACE inhibition (fluorescent peptidyl substrate). Format: biochemical. The note with it: for inhibition at 1 µM: read-out: TACE % inhibition.
Sequence of TACE (P78536 215-824): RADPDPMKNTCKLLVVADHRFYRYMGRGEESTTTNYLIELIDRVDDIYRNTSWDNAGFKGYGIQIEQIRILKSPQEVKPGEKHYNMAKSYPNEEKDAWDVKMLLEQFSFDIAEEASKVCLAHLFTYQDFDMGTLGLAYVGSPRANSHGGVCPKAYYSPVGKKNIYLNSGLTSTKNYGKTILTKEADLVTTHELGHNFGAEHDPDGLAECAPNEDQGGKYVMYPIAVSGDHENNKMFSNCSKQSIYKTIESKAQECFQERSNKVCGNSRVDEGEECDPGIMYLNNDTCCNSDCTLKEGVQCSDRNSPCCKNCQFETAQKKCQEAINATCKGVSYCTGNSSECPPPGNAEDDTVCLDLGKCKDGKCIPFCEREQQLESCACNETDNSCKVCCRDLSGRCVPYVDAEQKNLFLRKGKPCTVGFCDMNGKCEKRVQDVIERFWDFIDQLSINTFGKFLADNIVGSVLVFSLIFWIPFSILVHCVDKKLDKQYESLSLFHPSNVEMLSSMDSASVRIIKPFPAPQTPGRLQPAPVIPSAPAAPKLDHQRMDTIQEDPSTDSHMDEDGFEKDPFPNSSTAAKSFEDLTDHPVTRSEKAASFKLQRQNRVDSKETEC
Description: Using 96-well black microtiter plates, each well receives a solution composed of 10 μL TACE (final concentration 1 μg/mL), 70 μL Tris buffer, pH 7.4 containing 10% glycerol (final concentration 10 mM), and 10 μL of test compound solution in DMSO (final concentration 1 μl M, DMSO concentration <1%) and incubated for 10 minutes at room temperature.
The reaction is read (excitation 340 nm, emission 420 nm) for 10 min. and the increase in fluorescence over time is plotted as a linear line. The slope of the line is calculated and represents the reaction rate.
The linearity of the reaction rate is confirmed (r^2>0.85). The mean (x±sem) of the control rate is calculated and compared for statistical significance (p<0.05) with drug-treated rates using Dunnett's multiple comparison test.
Assay [3] concerns the target MMP-13 (Homo sapiens, UniProt P45452). In words: MMP-13 inhibition (thiopeptide or fluorescent peptide substrate). Format: biochemical.
Description: as §1, §2, §3
Assay [4] concerns the target T1, MMP-1 (Homo sapiens, UniProt P03956).
T1 sequence (P03956 100-469): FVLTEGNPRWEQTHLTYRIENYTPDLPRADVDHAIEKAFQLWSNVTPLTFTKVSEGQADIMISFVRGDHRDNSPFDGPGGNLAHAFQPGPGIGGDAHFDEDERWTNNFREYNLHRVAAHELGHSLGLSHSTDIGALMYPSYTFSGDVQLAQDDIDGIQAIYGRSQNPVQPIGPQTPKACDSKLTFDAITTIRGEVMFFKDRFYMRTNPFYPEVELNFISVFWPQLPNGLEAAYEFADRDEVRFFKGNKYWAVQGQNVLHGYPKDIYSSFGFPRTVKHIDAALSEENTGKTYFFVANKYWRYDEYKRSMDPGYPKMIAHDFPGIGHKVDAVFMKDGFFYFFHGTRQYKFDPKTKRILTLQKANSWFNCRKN
As to the kind of experiment: biochemical. Conditions: MMP-1 IC50.

Structures can show the parent of a compound that is named as a salt. Where two headings read alike, the source gives them in different places. Where only a bound is given, the exact number is not on record here.

Sequence of MMP-9 (P14780 94-707): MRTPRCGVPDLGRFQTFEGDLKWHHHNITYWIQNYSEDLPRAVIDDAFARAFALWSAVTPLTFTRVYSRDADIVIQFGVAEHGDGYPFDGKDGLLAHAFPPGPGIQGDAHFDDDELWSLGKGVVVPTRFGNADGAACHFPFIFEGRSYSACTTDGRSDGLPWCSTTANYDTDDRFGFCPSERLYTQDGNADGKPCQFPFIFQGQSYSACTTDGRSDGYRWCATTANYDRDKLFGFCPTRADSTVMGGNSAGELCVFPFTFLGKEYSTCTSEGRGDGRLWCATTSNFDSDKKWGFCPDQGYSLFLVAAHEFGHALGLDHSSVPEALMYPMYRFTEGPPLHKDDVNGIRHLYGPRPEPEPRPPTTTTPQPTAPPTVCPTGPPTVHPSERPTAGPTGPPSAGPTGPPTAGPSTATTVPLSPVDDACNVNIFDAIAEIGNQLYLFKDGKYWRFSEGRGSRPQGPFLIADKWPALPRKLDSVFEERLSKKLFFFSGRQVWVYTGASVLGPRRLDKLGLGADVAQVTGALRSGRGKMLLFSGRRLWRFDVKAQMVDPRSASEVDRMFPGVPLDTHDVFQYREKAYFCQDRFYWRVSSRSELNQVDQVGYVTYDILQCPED

Usually IC50 stands for the midpoint of a concentration-inhibition curve. By inhibition is commonly meant the change of the read-out against control, counted positive when it falls. In turn, `Cc1nn(C)c2ncc(C(=O)NO)c(N(C)S(=O)(=O)c3ccc(Oc4ccncc4)cc3)c12` [91(HC1), 4-{Methyl-[4-(4-pyridinyloxy)benzenesulfonyl]amino}-1,3-dimethyl-1H-pyrazolo[3,4-b]pyridine-5-carboxylic Acid, Hydroxyamide] came in with an IC50 in assay [1] (MMP-9 IC50) of 0.0018 µM. Moreover, the inhibition at 1 µM in assay [2] stood at 38.7%.

For `COc1ccc(S(=O)(=O)N(Cc2ccccc2)c2c(C(=O)NO)cnc3cc(C(F)(F)F)ccc23)cc1` [Example 11, 4-[Benzyl-(4-methoxy-benzenesulfonyl)-amino]-7-trifluoromethyl-quinoline-3-carboxylic acid hydroxyamide], the IC50 in assay [1] (read-out: MMP-9 IC50) is 0.011 µM; in assay [2] it was above 1 µM; in assay [3], 0.007 µM.

`COc1ccc(S(=O)(=O)N(Cc2ccccc2)c2c(C(=O)NO)cnc3c(C(F)(F)F)cccc23)cc1` [Example 12, 4-[Benzyl-(4-methoxy-benzenesulfonyl)-amino]-8-trifluoromethyl-quinoline-3-carboxylic acid hydroxyamide]: the IC50 in assay [1] (read-out: MMP-9 IC50) amounted to 0.002 µM; in assay [4], 0.933 µM; in assay [2], 0.19 µM; in assay [3], 0.001 µM.

For `COc1ccc(S(=O)(=O)N(Cc2ccccc2)c2c(C(=O)NO)cnc3ccc(Br)cc23)cc1` [Example 13, 4-[Benzyl-(4-methoxy-benzenesulfonyl)-amino]-6-bromo-quinoline-3-carboxylic acid hydroxyamide], the values for the 50% inhibitory concentration (IC50) in assay [1] (read-out: MMP-9 IC50), in assay [4] and in assay [3] were 0.015 µM, 0.082 µM and 0.009 µM, respectively. In addition, the inhibition at 1 µM in assay [2] (at 1 μM concentration) was 3%.

On to `COc1ccc(S(=O)(=O)N(Cc2ccccc2)c2c(C(=O)NO)cnc3cc(Br)ccc23)cc1` [Example 14, 4-[Benzyl-(4-methoxy-benzenesulfonyl)-amino]-7-bromo-quinoline-3-carboxylic acid hydroxyamide], for which the IC50 in assay [1] (read-out: MMP-9 IC50) is 0.008 µM; in assay [3], 0.006 µM. The inhibition at 1 µM in assay [2] (at 1 μM concentration) amounted to 24%.

As to `COc1ccc(S(=O)(=O)N(Cc2ccccc2)c2c(C(=O)NO)cnc3ccc(C(F)(F)F)cc23)cc1` [Example 15, 4-[Benzyl-(4-methoxy-benzenesulfonyl)-amino]-6-trifluoromethyl-quinoline-3-carboxylic acid hydroxyamide], the figures for the IC50 in assay [1] (read-out: MMP-9 IC50) and in assay [3] were 0.025 µM and 0.012 µM, respectively. Besides, in assay [2] (at 1 μM concentration), the inhibition at 1 µM turned out to be 7%.

Regarding `COc1ccc(S(=O)(=O)N(Cc2ccccc2)c2c(C(=O)NO)cnc3c(C)cccc23)cc1` [Example 18, 4-[Benzyl-(4-methoxybenzenesulfonyl)-amino]-8-methyl-quinoline-3-carboxylic acid hydroxyamide], the IC50 in assay [2] stood at 0.627 µM; in assay [3], 0.026 µM.

In the case of `CCc1cccc2c(N(Cc3ccccc3)S(=O)(=O)c3ccc(OC)cc3)c(C(=O)NO)cnc12` [Example 19, 4-[Benzyl-(4-methoxybenzenesulfonyl)-amino]-8-ethyl-quinoline-3-carboxylic acid hydroxyamide], the results for the IC50 in assay [1] (read-out: MMP-9 IC50), in assay [2] and in assay [3] were 0.002 µM, 0.314 µM and 0.004 µM, respectively.

In the case of `COc1ccc(S(=O)(=O)N(Cc2ccccc2)c2c(C(=O)NO)cnc3c(C(C)C)cccc23)cc1` [Example 20, 4-[Benzyl-(4-methoxybenzenesulfonyl)-amino]-8-(1-methylethyl)-quinoline-3-carboxylic acid hydroxyamide], the IC50 in assay [1] (read-out: MMP-9 IC50) was found to be 0.006 µM; in assay [4], 0.344 µM; in assay [2], 0.589 µM; in assay [3], 0.009 µM.

`C=Cc1cccc2c(N(CC)S(=O)(=O)c3ccc(OC)cc3)c(C(=O)NO)cnc12` [Example 29, 4-[Ethyl-(4-methoxy-benzenesulfonyl)-amino]-8-vinyl-quinoline-3-carboxylic acid hydroxyamide]: the figures for the IC50 in assay [1] (read-out: MMP-9 IC50), in assay [4] and in assay [3] were 0.005 µM, 0.2 µM and 0.004 µM, respectively.

On to `COc1ccc(S(=O)(=O)N(Cc2ccccc2)c2c(C(=O)NO)cnc3ccc([N+](=O)[O-])cc23)cc1` [Example 30, 4-[Benzyl-(4-methoxy-benzenesulfonyl)-amino]-6-nitro-quinoline-3-carboxylic acid hydroxyamide], for which the concentration for half-maximal inhibition (IC50) stood at 0.011 µM in assay [1] (read-out: MMP-9 IC50), 0.022 µM in assay [4], 0.047 µM in assay [2] and 0.467 µM in assay [3].

In the case of `COc1ccc(S(=O)(=O)N(C)c2c(C(=O)NO)cnc3c(Br)cccc23)cc1` [Example 31, 4-[Methyl-(4-methoxy-benzenesulfonyl)-amino]-8-bromo-quinoline-3-carboxylic acid hydroxyamide], the IC50 was 0.225 µM in assay [4], 0.08 µM in assay [2] and 0.002 µM in assay [3].

For `CN(c1c(C(=O)NO)cnc2ccc(I)cc12)S(=O)(=O)c1ccc(Oc2ccncc2)cc1` [Example 32, 4-{Methyl-[4-(pyridin-4-yloxy)-benzenesulfonyl]-amino}-6-iodo-quinoline-3-carboxylic acid hydroxyamide], the half-maximal inhibitory concentration (IC50) turned out to be 0.001 µM in assay [1] (read-out: MMP-9 IC50), 0.456 µM in assay [4], 0.024 µM in assay [2] and 0.001 µM in assay [3].

Consider `COc1ccc(S(=O)(=O)N(Cc2cccnc2)c2c(C(=O)NO)cnc3c(I)cccc23)cc1` [Example 39, 4-[(4-Methoxy-benzenesulfonyl)-pyridin-3-ylmethyl-amino]-8-iodo-quinoline-3-carboxylic acid hydroxyamide], for which the IC50 in assay [1] (read-out: MMP-9 IC50) came to 0.002 µM; in assay [2] it was 0.053 µM; in assay [3] it was 0.002 µM.

As to `O=C(NO)c1cnc2cc(C(F)(F)F)ccc2c1N(Cc1cccnc1)S(=O)(=O)c1ccc(-c2ccccc2)cc1` [Example 42, 4-[(Biphenyl-4-sulfonyl)-pyridin-3-ylmethyl-amino]-7-trifluoromethyl-quinoline-3-carboxylic acid hydroxyamide], the IC50 in assay [1] (read-out: MMP-9 IC50) stood at 0.874 µM; in assay [4], 5.2 µM.

In the case of `COc1ccc(S(=O)(=O)N(Cc2cccnc2)c2c(C(=O)NO)cnc3c2cnn3-c2ccccc2)cc1` [Example 63, 4-[(4-Methoxybenzenesulfonyl)pyridin-3-ylmethylamino]-1-phenyl-1H-pyrazolo[3,4-b]pyridine-5-carboxylic acid, hydroxyamide], the IC50 in assay [1] (read-out: MMP-9 IC50) amounted to 0.0068 µM; in assay [4] it was 0.721 µM; in assay [3], 0.023 µM.

Turning to `COc1ccc(S(=O)(=O)N(Cc2cccnc2)c2c(C(=O)NO)cnc3c2cnn3-c2ccccc2)cc1` [Example 64, 4-[(4-Methoxybenzenesulfonyl)pyridin-3-ylmethylamino]-1-phenyl-1H-pyrazolo[3,4-b]pyridine-5-carboxylic acid, hydroxyamide, hydrochloride], the concentration for half-maximal inhibition (IC50) in assay [1] (read-out: MMP-9 IC50) was 0.0055 µM; in assay [4] it was 0.913 µM; in assay [3] it was 0.019 µM.

For `COc1ccc(S(=O)(=O)N(Cc2cccnc2)c2c(C(=O)NO)cnc3c2c(C)nn3-c2ccccc2)cc1` [Example 67, 4-[(4-Methoxybenzenesulfonyl)pyridin-3-ylmethylamino]-1phenyl-3-methyl-1H-pyrazolo[3,4-b]pyridine-5-carboxylic acid, hydroxyamide], the IC50 in assay [4] stood at 0.096 µM.

Regarding `COc1ccc(S(=O)(=O)N(Cc2cccnc2)c2c(C(=O)NO)cnc3snc(C)c23)cc1` [Example 86, 4-[(4-Methoxybenzenesulfonyl)pyridin-3-ylmethylamino]-3-methylisothiazolo[5,4-b]pyridine-5-carboxylic Acid, Hydroxyamide], the IC50 in assay [1] (read-out: MMP-9 IC50) turned out to be 0.0069 µM; in assay [4], 0.131 µM.
